The values that follow come from patent US20090220996A1, “In vitro Assay Methods for Classifying Embryotoxicity of Compounds” (RELIANCE LIFE SCIENCES PVT LTD., priority 2007, published 2009).

For orientation: IC50 means the concentration that gives 50% inhibition.

Molecules are shown by their SMILES. Converted amounts (≈) assume the structure as drawn. Read-outs that look alike come from different tables or passages of the source.

The test system of data set [1] is human embryoid bodies (hEBs). Briefly: Morphological evaluation of embryoid bodies (photomicrographs). It counts as cell-based. As to conditions: day 7 hEBs; FIG. 4A-4D. As for the experimental part:
Hanging drops were made in hES media with LIF and bFGF for calculating IC50-hES cells, and in hES media without LIF and bFGF (hEB media) for the formation of EBs. On day 3 the hES colonies were collected along with the respective test compound concentration, whereas the hEBs were collected and transferred to 60 mm bacteriological petri plates for another 2 days. Morphology of the EBs was monitored under the microscope for the formation of EBs. On day 5 the hEBs were plated in a 96 well plate for MTT, as well as on a 6 well plate for RNA extraction. The media along with the appropriate test compound concentration was replaced in the 96 well and 6 well plates on days 7, 9, 11, and 13. On day 15, MTT was performed on the hES plate and the differentiated EBs. RNA was extracted from all the concentrations of 5-fluorouracil, and 1 μg of RNA was converted to cDNA to perform RT-PCR, real time PCR, or TLDA.

In data set [2] the test system is human embryoid bodies (hEB). Briefly: Cytotoxicity in human embryoid bodies, day 15 (MTT / CyQUANT). As to conditions: for IC50: Homo sapiens. As for the experimental part:
In general, the presently disclosed embryotoxicity testing protocols comprise the following sequence of steps. Studies using embryoid bodies generally comprise: a) preparation of various concentrations of test solutions in culture medium or a desired solvent; b) preparation of a cell suspension by enzymatic digestion of human embryonic stem cell colonies; c) culturing the cell suspension for formation of embryoid bodies in the presence and absence of one or more test solutions, and incubation for several days (e.g., three days) in hanging drops; d) cultivation of the embryoid bodies in bacteriological petri dishes for several days (e.g., two days) under controlled conditions; e) transfer of the embryoid bodies into 96 well plates and incubation for several days (e.g., 10 days) in the presence of one or more test solutions; and f) detection of the viability of the embryoid bodies after 15 days by MTT assay, or fluorescent or luminescent method, and isolation of RNA for studying gene expression. Studies using human foreskin fibroblasts (HFF) generally comprise: a) preparation of various concentrations of test solutions in culture medium or a desired solvent; b) plating of HFF cells in 96 well plates in the presence or absence of one or more test solutions for 15 days, changing the media and test solutions every 2 days; and c) detection of the viability of HFF after 15 days by MTT assay, or fluorescent or luminescent method. Studies using human embryonic stem cells generally comprise: a) preparation of various concentrations of test solutions in culture medium or a desired solvent; b) preparation of hES colonies by manual passage in the presence and absence of one or more test solutions, and incubation for 15 days on matrigel coated plates changing the media and test solutions every 2 days; c) disruption of the colonies after 15 days with enzymes to form single cells; d) labeling of single cells with a fluorescently-labeled dye, such as propidium iodide (“PI”); and e) detection of the percentage viability with FACS as a measure of cytotoxicity.
The culturing of the cell suspension is done by dispensing about ¼ of the cell suspension along with test chemicals on the inner side of a 100 mm bacteriological petri dish. Around 50-80 drops are dispensed for each concentration, the untreated control, and the solvent control. The lid is turned carefully into its regular position and is put on top of a petri dish containing 5 ml of phosphate buffered saline (“PBS”). The “hanging drops” are incubated for three days in a humidified atmosphere with 5% CO2 at 37° C.
On day 3, 5 ml of freshly prepared test solution is added to the lid of the “hanging drops” petri dish. The embryoid bodies are carefully transferred from the lid of the “hanging drops” petri dish to a 60 mm bacteriological petri dish. The suspension is cultivated for two days in a humidified atmosphere with 5% CO2 at 37° C.
On the 5th day, the EBs are transferred into 96 well plates by placing 10 EBs in each well. About 150 μl of freshly prepared test solution is added to each well, and three wells are used for each concentration. The 96 well plates are incubated for […] in a humidified atmosphere with 5% CO2 at 37° C. The remaining EBs are plated on a 24 well plate coated with 0.2% gelatin and allowed to differentiate. Media was replaced every second day until day 15.
On the 15th day, an MTT assay is performed. MTT solution (5 mg/ml) is prepared in culture medium containing test chemical. The MTT solution is added to all wells and incubated at 37° C. in a humidified atmosphere of 5% CO2 for 4 hours, after which the MTT desorb solution (acidified isopropanol) is added to each well. The plate is shaken on a micrometer plate for 15 minutes to dissolve the formazan. The absorbance is measured at 550-570 nm in a microtiter plate reader using 630 nm as a reference wavelength.

Another data set has as its system mouse ES cells. The note with it: Table 4; from the EST (Genschow, et al., 2000); cited from earlier work.
The subject of data set [3] is human embryonic stem cells (hES). The data set can be described thus: Cytotoxicity in undifferentiated human embryonic stem cells, day 15 (FACS with PI / CyQUANT). It counts as cell-based. As to conditions: Homo sapiens, Embryonic stem cell. The method, then:
In general, the presently disclosed embryotoxicity testing protocols comprise the following sequence of steps. Studies using embryoid bodies generally comprise: a) preparation of various concentrations of test solutions in culture medium or a desired solvent; b) preparation of a cell suspension by enzymatic digestion of human embryonic stem cell colonies; c) culturing the cell suspension for formation of embryoid bodies in the presence and absence of one or more test solutions, and incubation for several days (e.g., three days) in hanging drops; d) cultivation of the embryoid bodies in bacteriological petri dishes for several days (e.g., two days) under controlled conditions; e) transfer of the embryoid bodies into 96 well plates and incubation for several days (e.g., 10 days) in the presence of one or more test solutions; and f) detection of the viability of the embryoid bodies after 15 days by MTT assay, or fluorescent or luminescent method, and isolation of RNA for studying gene expression. Studies using human foreskin fibroblasts (HFF) generally comprise: a) preparation of various concentrations of test solutions in culture medium or a desired solvent; b) plating of HFF cells in 96 well plates in the presence or absence of one or more test solutions for 15 days, changing the media and test solutions every 2 days; and c) detection of the viability of HFF after 15 days by MTT assay, or fluorescent or luminescent method. Studies using human embryonic stem cells generally comprise: a) preparation of various concentrations of test solutions in culture medium or a desired solvent; b) preparation of hES colonies by manual passage in the presence and absence of one or more test solutions, and incubation for 15 days on matrigel coated plates changing the media and test solutions every 2 days; c) disruption of the colonies after 15 days with enzymes to form single cells; d) labeling of single cells with a fluorescently-labeled dye, such as propidium iodide (“PI”); and e) detection of the percentage viability with FACS as a measure of cytotoxicity. […]
After 2 hours incubation, 150 μl of assay medium containing the appropriate concentration of test chemical (150 μl volume contains 1.333× the final chemical concentration) was added. Appropriate blanks without the chemicals were used along with the test samples The cell cultures were incubated at 5% CO2 and 37° C. for 3 days. On day 3, test solution was removed with the care, so that the cell layer on the bottom of the wells was not disturbed. Next, 200 μl of freshly prepared test solution (final concentration/well as on day 0) was added, and the cell cultures were incubated at 5% CO2 and 37° C. for 3 days. This process was repeated on days 6, 9, and 12. Determination of cell growth inhibition was performed at day 15 of the assay using MTT reagent. Cytotoxicity for hES cells was calculated using flow cytometry. Briefly, cells were placed on matrigel coated plates along with different test compound concentrations. Media was replaced every 3 days along with the different test compound concentrations. At day 15, hES cells were collected by trypsinization, and after washing with PBS, the cells were incubated with PI for 10 minutes in the dark. Percent viability for various test compound concentrations was calculated using flow cytometry.
Cytotoxicity analysis of three cell types (hES, hEBs and HFF) was evaluated using the CyQUANT assay following compound treatment. All data were the mean of three independent experiments for each cell type. Data is represented as the mean±SE.

The test system of data set [4] is 3T3 (mouse fibroblast cell line). The note with it: Table 4; from the EST (Genschow, et al., 2000); cited from earlier work.
The conditions of data set [5]: Table 5; cited from earlier work.

With `O=C1NS(=O)(=O)c2ccccc21` [Saccharin, saccharin], the “concentration required to elicit a similar morphological response (loss of compactness, decreased EB size)” value in data set [1] turned out to be 5000 μg/ml. The IC50 in data set [2] (360 h, read-out: IC50-hEB) was 1550 ± 34.5 µg/mL (≈ 8.44 mM); in data set [2] (read-out: IC50-hEBs), 1550 µg/mL (≈ 8.44 mM); in data set [3] (360 h, Table 3, mean of 3 experiments, day 15, read-out: IC50-hES) it was 1920 ± 22.5 µg/mL (≈ 10.5 mM); in data set [3] (Table 4, CyQuant cell viability assay, read-out: Human EST IC50 - hES) it was 1920 ± 22.5 µg/mL (≈ 10.5 mM). For the same compound, the cell survival result in data set [2] (hEBs, 1000 μg/ml, CyQUANT, FIG. 4A/4B) is reported as “about 60%”. For the same compound, in the data set with mouse ES cells, the “Mouse EST IC50 - mES” value is 3498 µg/mL. Moreover, the “Mouse EST IC50 - 3T3” value in data set [4] was 3000 µg/mL. The General toxicity result in data set [5] is “Obesity”.
